Experimental data: publication PMC7712428, “Dimethoate Induces DNA Damage and Mitochondrial Dysfunction Triggering Apoptosis in Rat Bone-Marrow and Peripheral Blood Cells” (Toxics, 2020)
Several values for one entry are separate records, joined by “and”; a condition that tells them apart may be missing. Equal entries are not always repeated. Where two headings read alike, the source gives them in different places.

Tests used:
Platelets = settings: 72 h treatment
peripheral blood cells = settings: for Olive Tail Moment / Tail Length (µm): Mean ± SD
Description: (§1) The experimental animals—Rattus norvegicus (Wistar strain; 8–10 weeks old; 120 ± 20 gm; males only) were acquired from Indian Institute of Integrative Medicine (IIIM-CSIR) (Jammu, India), quarantined, acclimatized and sacrificed as per standard practice conforming to the University Ethical Regulations. After acclimatization, rats were divided into five groups by stratified randomization with five animals per group. […] Distilled water was used to prepare dosing solutions of test agent and injected via intraperitoneal (i.p.) injection. At 24, 48 and 72 h post-dosing, 5 rats per duration were sacrificed and necessary tissues were isolated for different cytogenetic and molecular parameters. For CA assessment, separate experimental lot was used due to colchicine treatment.
Detection of DNA strand break was performed according to protocol of Singh et al. with some modifications. Briefly, blood was collected using Retro-orbital bleeding during euthanasia. 10μL whole blood cells obtained were mixed with 75 µL of 0.5% LMPA and layered onto frosted slides which was pre-coated with NMA. After putting cover slip, slides were kept for 5–10min. After gelling, removed cover slip gently and added a layer of 90 μL of LMPA. After replacing the cover slip, slides were placed on the slide tray (ice packs) till the agarose layer hardened (5–10 min). Following this, removed the cover slip and by gently immersing the slides in lysis buffer embedded cells were lysed. Cells lysis was performed in cold conditions for a minimum of 2 h in lysing solution.
Alkaline conditions (pH > 13) were used to perform the electrophoresis. After lysis, slides were subjected in electrophoretic buffer at 4 °C for 40 min to achieve the DNA denaturation that allow the DNA unwinding and the expression of alkali labile site. Electrophoresis was then carried out at 0.74 V/cm for 40 min (300 mA; 24 volts) at 4 °C by raising or lowering buffer. Thereafter, neutralization buffer (0.4 M Tris, 10 M HCl; pH = 7.5) were employed to wash the slides. Slides were stained by 80 μL of 1× Ethidium Bromide and excess stain was removed by dipping in chilled distilled water. Slides were examined at 40× magnification under fluorescence microscope coupled with a charge coupled device camera (Olympus).

Eosinophils = system: Eosinophils
Description: as §1
(§2) WBCs were isolated by following the protocol of Lone et al.. Blood was collected in 0.1% EDTA from retro-orbital plexus of rat, followed by incubation for 30 min. 500 µL of blood was then added to a centrifuge tube with 1 mL FACS lysing solution. The blood was incubated for 10 min and centrifuged (2000 rpm, 10 min) at 25 °C. After discarding the supernatant, pellet was washed in 1mL FACS lysing solution followed by centrifuging at 2000 rpm for 5 min. Repeated this step twice and then pellet was put in 500 µL of PBS, leaving only WBCs.
(§3) Protocol of Majeed and colleagues was employed for flow cytometric measurements of change in Ψm. […] Leukocytes were identified via forward and side scatter.

Neutrophils = system: Neutrophils
Description: as §1, §2, §3

bone marrow cells = settings: for Total Aberrations (Mean ± SD): mean percentage; for MI (Mean ± SD): mitotic index mean percentage; for Structural Aberrations Assoc: number of associations; for Structural Aberrations Brk: number of breaks; for Structural Aberrations Del: number of deletions; for Structural Aberrations Dcn: number of dicentrics; for Structural Aberrations Frag: number of fragments; for Structural Aberrations Gp: number of gaps; for Structural Aberrations Ring: number of rings
Description: as §1
Method of Preston et al. was used for preparing the metaphase chromosomes. An aqueous solution of Colchicine (4 mg/kgbw) was injected intraperitoneally 2 h prior to sacrificing the animal. Pre-warm KCL (0.075 M) solution was used to collect the bone marrow cells followed by incubation at 37 °C for 20 min, and then centrifuge at 1000 rpm for 10 min. After fixing the pellet in cold Cornoy’s fixative dropped onto clean pre-chilled glass slide in 30% ethanol and dried in air. 5% buffered Giemsa (pH 7.0) was used for staining. Chromosomal aberrations were analyzed on properly separated metaphases and finally photographed at 100× (Olympus U—PMTV microscope), using oil immersion. The metaphase cells from approximately 1000 cells per concentration per animal both in exposed and control replicates, expressed in percentage were considered for mitotic indices (MI).

## CNC(=O)CSP(=S)(OC)OC [DM, 0,0- Dimethyl S-(N-methylcarbamoylmethyl) phosphorodithiote]
Platelets
  MMP loss (membrane potential loss): greater than 90%
Peripheral blood cells; 20 mg/kgbw, 24 h
  Olive Tail Moment: 5.65 ± 0.33 ***^,a
  Tail Length (µm): 22.44 µm and 22.44 ± 2.07 ***^,a µm
Peripheral blood cells; 20 mg/kgbw, 48 h
  Olive Tail Moment: 4.01 ± 0.48 ***^,a
  Tail Length (µm): 19.26 ± 1.00 *^,a µm
Peripheral blood cells; 20 mg/kgbw, 72 h
  Olive Tail Moment: 2.71 ± 0.31 *^,a
  Tail Length (µm): 16.16 ± 1.35 *^,a µm
Peripheral blood cells; 40 mg/kgbw, 24 h
  Tail Length (µm): 24.37 ± 1.66 ***^,a,b µm
Peripheral blood cells; 40 mg/kgbw, 48 h
  Olive Tail Moment: 5.35 ± 0.48 ***^,a,*^,b
  Tail Length (µm): 25.07 ± 1.87 ***^,a,b µm
Peripheral blood cells; 40 mg/kgbw, 72 h
  Olive Tail Moment: 3.13 ± 0.28 *^,a
  Tail Length (µm): 21.12 ± 1.45 ***^,a µm
Peripheral blood cells; 60 mg/kgbw, 24 h
  Tail Length (µm): 30.09 µm and 30.09 ± 2.86 ***^,a,b µm
Peripheral blood cells; 60 mg/kgbw, 48 h
  Olive Tail Moment: 6.46 ± 0.64 ***^,a,b,c
  Tail Length (µm): 27.63 ± 3.12 ***^,a,c,**^,b µm
Peripheral blood cells; 60 mg/kgbw, 72 h
  Olive Tail Moment: 4.84 ± 0.41 **^,a
  Tail Length (µm): 20.37 ± 1.59 *^,a,c µm
Peripheral blood cells; single dose of 10 mg DM/kgbw, 24 h
  increase of OTM vis-a-vis negative control: ~5 fold
Eosinophils; 48 h exposure period (Figure 8)
  MMP loss: around 30%
Eosinophils; 72 h treatment
  MMP loss (membrane potential loss): greater than 90%
Neutrophils; neutrophils, 72 h treatment
  MMP loss (membrane potential loss): greater than 90%
Neutrophils; neutrophils, initial exposure time
  maximum MMP loss: greater than 30%
Neutrophils; range over increased DM doses, initial exposure time
  MMP loss in neutrophils: 2–40%
Bone marrow cells; 20 mg/kgbw, 24 h
  Total Aberrations (Mean ± SD): 5.66 ± 1.03 **^,a %
  MI (Mean ± SD): 2.19 ± 0.21 *^,a %
  Structural Aberrations Assoc: 4
  Structural Aberrations Brk: 2
  Structural Aberrations Del: 4
  Structural Aberrations Dcn: 8
  Structural Aberrations Frag: 6
  Structural Aberrations Gp: 8
  Structural Aberrations Ring: 2
Bone marrow cells; 20 mg/kgbw, 48 h
  Total Aberrations (Mean ± SD): 5.33 ± 1.43 **^,a %
  MI (Mean ± SD): 2.04 ± 0.15 *^,a %
  Structural Aberrations Assoc: 5
  Structural Aberrations Brk: 9
  Structural Aberrations Del: 5
  Structural Aberrations Dcn: 3
  Structural Aberrations Frag: 12
  Structural Aberrations Gp: 6
  Structural Aberrations Ring: 6
Bone marrow cells; 20 mg/kgbw, 72 h
  Total Aberrations (Mean ± SD): 2.17 ± 0.83 *^,a %
  MI (Mean ± SD): 2.07 ± 0.10 *^,a %
  Structural Aberrations Assoc: 0
  Structural Aberrations Brk: 2
  Structural Aberrations Del: 4
  Structural Aberrations Dcn: 2
  Structural Aberrations Frag: 4
  Structural Aberrations Gp: 5
  Structural Aberrations Ring: 1
Bone marrow cells; 40 mg/kgbw, 24 h
  Total Aberrations (Mean ± SD): 5.83 ± 1.69 **^,a %
  MI (Mean ± SD): 2.16 ± 0.16 *^,a %
  Structural Aberrations Assoc: 6
  Structural Aberrations Brk: 4
  Structural Aberrations Del: 4
  Structural Aberrations Dcn: 12
  Structural Aberrations Frag: 3
  Structural Aberrations Gp: 8
  Structural Aberrations Ring: 6
Bone marrow cells; 40 mg/kgbw, 48 h
  Total Aberrations (Mean ± SD): 5.16 ± 1.74 **^,a %
  MI (Mean ± SD): 1.98 ± 0.08 *^,a %
  Structural Aberrations Assoc: 6
  Structural Aberrations Brk: 3
  Structural Aberrations Del: 4
  Structural Aberrations Dcn: 8
  Structural Aberrations Frag: 16
  Structural Aberrations Gp: 7
  Structural Aberrations Ring: 5
Bone marrow cells; 40 mg/kgbw, 72 h
  Total Aberrations (Mean ± SD): 2.67 ± 0.75 *^,a %
  MI (Mean ± SD): 2.05 ± 0.14 *^,a %
  Structural Aberrations Assoc: 1
  Structural Aberrations Brk: 5
  Structural Aberrations Del: 2
  Structural Aberrations Dcn: 2
  Structural Aberrations Frag: 5
  Structural Aberrations Gp: 7
  Structural Aberrations Ring: 1
Bone marrow cells; 60 mg/kgbw, 24 h
  Total Aberrations (Mean ± SD): 7.50 ± 1.15% and 7.50 ± 1.15 **^,a,*^,b %
  MI (Mean ± SD): 1.92 ± 0.61 *^,a %
  Structural Aberrations Assoc: 4
  Structural Aberrations Brk: 6
  Structural Aberrations Del: 6
  Structural Aberrations Dcn: 10
  Structural Aberrations Frag: 8
  Structural Aberrations Gp: 7
  Structural Aberrations Ring: 4
Bone marrow cells; 60 mg/kgbw, 48 h
  Total Aberrations (Mean ± SD): 6.83 ± 1.90 **^,a %
  MI (Mean ± SD): 1.97 ± 0.12 *^,a %
  Structural Aberrations Assoc: 7
  Structural Aberrations Brk: 7
  Structural Aberrations Del: 5
  Structural Aberrations Dcn: 7
  Structural Aberrations Frag: 14
  Structural Aberrations Gp: 8
  Structural Aberrations Ring: 9
Bone marrow cells; 60 mg/kgbw, 72 h
  Total Aberrations (Mean ± SD): 3.16 ± 0.71 *^,a %
  MI (Mean ± SD): 1.95 ± 0.04 *^,a %
  Structural Aberrations Assoc: 1
  Structural Aberrations Brk: 8
  Structural Aberrations Del: 3
  Structural Aberrations Dcn: 2
  Structural Aberrations Frag: 3
  Structural Aberrations Gp: 6
  Structural Aberrations Ring: 2
